Reference: PubChem BioAssay AID1845209 (Molecular Pharmacology Branch, DTP, NCI, 2023)

Tested on: NCI-H211 tumor spheroids, viability percent test/control
Experiment: Anticancer human tumor NCI-H211 cell line growth inhibition;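 also: spheroids exposed to agents for seven days before readout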
Details: spheroids with HUVEC and MSC; for IC50: curve of first compound; for viability, T/C: stronger effect = lower value; active = viability on the fitted dose curve at most 10% of control; inactive = the rest
Outline: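 Complex tumor spheroids combined malignant cells with endothelial cells and mesenchymal stem cells. DNA-damaging drugs and DNA repair inhibitors were tested alone and in combination, at half-log dilutions down from clinical Cmax (top 10 microM if Cmax unknown), 0.25% DMSO final.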

[1] = second compound 0.003 µM, first compound 0.0316 µM
[2] = second compound 0.003 µM, first compound 0.1 µM
[3] = second compound 0.003 µM, first compound 0.316 µM
[4] = second compound 0.003 µM, first compound 1 µM
[5] = second compound 0.003 µM, first compound 3.16 µM
[6] = second compound 0.003 µM, first compound 10 µM

COc1cc(C)[nH]c(=O)c1CN1CCc2c(Cl)cc(C(OC)C3COC3)c(Cl)c2C1=O (stereo not given) + COc1cc2c(cc1O)CCNC21CSC2c3c(OC(C)=O)c(C)c4c(c3C(COC1=O)N1C(O)C3Cc5cc(C)c(OC)c(O)c5C(C21)N3C)OCO4
inactive: viability, T/C (second compound 30 pM, first compound 0.0316 µM) 94.3% | viability, T/C (second compound 30 pM, first compound 0.1 µM) 98.4% | viability, T/C (second compound 30 pM, first compound 0.316 µM) 95% | viability, T/C (second compound 30 pM, first compound 1 µM) 90.2% | viability, T/C (second compound 30 pM, first compound 3.16 µM) 81.9% | viability, T/C (second compound 30 pM, first compound 10 µM) 77.2% | viability, T/C (second compound 94.9 pM, first compound 0.0316 µM) 13.8% | viability, T/C (second compound 94.9 pM, first compound 0.1 µM) 22.7% | viability, T/C (second compound 94.9 pM, first compound 0.316 µM) 22.8% | viability, T/C (second compound 94.9 pM, first compound 1 µM) 16% | viability, T/C (second compound 94.9 pM, first compound 3.16 µM) 10.4%
active: viability, T/C (second compound 94.9 pM, first compound 10 µM) 5.32% | viability, T/C (second compound 0.0003 µM, first compound 0.0316 µM) 0.73% | viability, T/C (second compound 0.0003 µM, first compound 0.1 µM) 0.85% | viability, T/C (second compound 0.0003 µM, first compound 0.316 µM) 0.77% | viability, T/C (second compound 0.0003 µM, first compound 1 µM) 0.69% | viability, T/C (second compound 0.0003 µM, first compound 3.16 µM) 0.78% | viability, T/C (second compound 0.0003 µM, first compound 10 µM) 0.85% | viability, T/C (second compound 0.000949 µM, first compound 0.0316 µM) 0.63% | viability, T/C (second compound 0.000949 µM, first compound 0.1 µM) 0.69% | viability, T/C (second compound 0.000949 µM, first compound 0.316 µM) 0.66% | viability, T/C (second compound 0.000949 µM, first compound 1 µM) 1.2% | viability, T/C (second compound 0.000949 µM, first compound 3.16 µM) 0.82% | viability, T/C (second compound 0.000949 µM, first compound 10 µM) 0.76% | viability, T/C [1] 0.12% | viability, T/C [2] 0.11% | viability, T/C [3] 0.11% | viability, T/C [4] 0.1% | viability, T/C [5] 0.11% | viability, T/C [6] 0.56%
> 10000 nM: IC50 (second compound 30 pM)
< 31.6 nM: IC50 (second compound 94.9 pM) | IC50 (second compound 0.0003 µM) | IC50 (second compound 0.000949 µM) | IC50 (second compound 0.003 µM)

COc1ccc([C@@H](O)c2cc(-c3ncnc4cc(N5CCOCC5)ccc34)c(F)cc2Cl)nn1 + CC[C@@]1(O)C(=O)OCc2c1cc1n(c2=O)Cc2cc3c(CN(C)C)c(O)ccc3nc2-1
active: viability, T/C [6] 5.72% | viability, T/C (second compound 0.00949 µM, first compound 3.16 µM) 4.32% | viability, T/C (second compound 0.00949 µM, first compound 10 µM) 1.55% | viability, T/C (second compound 0.03 µM, first compound 0.0316 µM) 0.99% | viability, T/C (second compound 0.03 µM, first compound 0.1 µM) 1.23% | viability, T/C (second compound 0.03 µM, first compound 0.316 µM) 0.9% | viability, T/C (second compound 0.03 µM, first compound 1 µM) 0.66% | viability, T/C (second compound 0.03 µM, first compound 3.16 µM) 0.4% | viability, T/C (second compound 0.03 µM, first compound 10 µM) 0.33% | viability, T/C (second compound 0.0949 µM, first compound 0.0316 µM) 0.86% | viability, T/C (second compound 0.0949 µM, first compound 0.1 µM) 0.83% | viability, T/C (second compound 0.0949 µM, first compound 0.316 µM) 0.77% | viability, T/C (second compound 0.0949 µM, first compound 1 µM) 1.43% | viability, T/C (second compound 0.0949 µM, first compound 3.16 µM) 0.37% | viability, T/C (second compound 0.0949 µM, first compound 10 µM) 0.32% | viability, T/C (second compound 0.3 µM, first compound 0.0316 µM) 0.92% | viability, T/C (second compound 0.3 µM, first compound 0.1 µM) 1.06% | viability, T/C (second compound 0.3 µM, first compound 0.316 µM) 0.96% | viability, T/C (second compound 0.3 µM, first compound 1 µM) 0.94% | viability, T/C (second compound 0.3 µM, first compound 3.16 µM) 1.01% | viability, T/C (second compound 0.3 µM, first compound 10 µM) 0.26%
< 31.6 nM: IC50 (second compound 0.00949 µM) | IC50 (second compound 0.03 µM) | IC50 (second compound 0.0949 µM) | IC50 (second compound 0.3 µM)
inactive: viability, T/C [1] 112% | viability, T/C [2] 109% | viability, T/C [3] 109% | viability, T/C [4] 80.8% | viability, T/C [5] 57.8% | viability, T/C (second compound 0.00949 µM, first compound 0.0316 µM) 18.5% | viability, T/C (second compound 0.00949 µM, first compound 0.1 µM) 19% | viability, T/C (second compound 0.00949 µM, first compound 0.316 µM) 34.5% | viability, T/C (second compound 0.00949 µM, first compound 1 µM) 10.9%
3600 nM: IC50 (second compound 0.003 µM)

CNCc1ccc(-c2cc(-c3nc(-c4ccc(S(=O)(=O)C(C)C)cc4)cnc3N)on2)cc1 + COc1cc2c(cc1O)CCNC21CSC2c3c(OC(C)=O)c(C)c4c(c3C(COC1=O)N1C(O)C3Cc5cc(C)c(OC)c(O)c5C(C21)N3C)OCO4
inactive: viability, T/C (second compound 30 pM, first compound 0.00949 µM) 93.2% | viability, T/C (second compound 30 pM, first compound 0.03 µM) 36.2%
22.8 nM: IC50 (second compound 30 pM)
< 9.49 nM: IC50 (second compound 94.9 pM) | IC50 (second compound 0.0003 µM) | IC50 (second compound 0.000949 µM) | IC50 (second compound 0.003 µM)
active: viability, T/C (second compound 30 pM, first compound 0.0949 µM) 2.15% | viability, T/C (second compound 30 pM, first compound 0.3 µM) 0.93% | viability, T/C (second compound 30 pM, first compound 0.949 µM) 0.77% | viability, T/C (second compound 30 pM, first compound 3 µM) 0.11% | viability, T/C (second compound 94.9 pM, first compound 0.00949 µM) 8.16% | viability, T/C (second compound 94.9 pM, first compound 0.03 µM) 1.5% | viability, T/C (second compound 94.9 pM, first compound 0.0949 µM) 1.02% | viability, T/C (second compound 94.9 pM, first compound 0.3 µM) 0.78% | viability, T/C (second compound 94.9 pM, first compound 0.949 µM) 0.59% | viability, T/C (second compound 94.9 pM, first compound 3 µM) 0.11% | viability, T/C (second compound 0.0003 µM, first compound 0.00949 µM) 0.82% | viability, T/C (second compound 0.0003 µM, first compound 0.03 µM) 0.84% | viability, T/C (second compound 0.0003 µM, first compound 0.0949 µM) 0.73% | viability, T/C (second compound 0.0003 µM, first compound 0.3 µM) 0.7% | viability, T/C (second compound 0.0003 µM, first compound 0.949 µM) 0.5% | viability, T/C (second compound 0.0003 µM, first compound 3 µM) 0.1% | viability, T/C (second compound 0.000949 µM, first compound 0.00949 µM) 1.01% | viability, T/C (second compound 0.000949 µM, first compound 0.03 µM) 0.87% | viability, T/C (second compound 0.000949 µM, first compound 0.0949 µM) 0.88% | viability, T/C (second compound 0.000949 µM, first compound 0.3 µM) 0.66% | viability, T/C (second compound 0.000949 µM, first compound 0.949 µM) 0.34% | viability, T/C (second compound 0.000949 µM, first compound 3 µM) 0.11% | viability, T/C (second compound 0.003 µM, first compound 0.00949 µM) 0.11% | viability, T/C (second compound 0.003 µM, first compound 0.03 µM) 0.11% | viability, T/C (second compound 0.003 µM, first compound 0.0949 µM) 0.09% | viability, T/C (second compound 0.003 µM, first compound 0.3 µM) 0.1% | viability, T/C (second compound 0.003 µM, first compound 0.949 µM) 0.1% | viability, T/C (second compound 0.003 µM, first compound 3 µM) 0.15%
